In patent publication US20090325984A1, “USE OF 1,7-DIMETHYLXANTHINE FOR THE MANUFACTURE OF A NON-ANXIOGENIC PSYCHOANALEPTIC DRUG FOR THE TREATMENT OF A NEUROPSYCHIATRIC DISORDER” (Pierre Fabre Medicament, priority 2006, published 2009):
“Also recorded” adds a separate entry of the source.

What was measured:
Assay type in all cases: in vivo
male Wistar rats = test: Vogel conflict test in the rat; settings: intraperitoneal, 1, 10, 25 and 50 mg/kg
Procedure: Experiments were performed using male Wistar rats weighing 180 g to 280 g according to the procedure described by Vogel et al. (Psychopharmacologia, 1971, 21: 1-7). Animals were deprived of water for 48 hours and then individually placed in a plexiglass chamber (15×32×34 cm) whose floor consisted of conducting metal bars spaced 1 cm apart. In the center of one of the chamber's walls was placed a metal cup connected to an electric shock generator (1.7 mA; 1 s).
During the test, the animal, which is left free to explore the apparatus, receives an electric shock each time it consumes water from the cup. A researcher blind to the treatment received by the animal counts the number of times that the animal consumes water and is punished by the electric shock. An increase in the number of times an animal consumes water indicates an anxiolytic effect, whereas a reduction in this number indicates an anxiogenic effect.
(§1) Paraxanthine was dissolved under heating in sodium benzoate (30 mg/ml) with the addition of Cremophor EL to a final concentration of 15% and administered by intraperitoneal route at doses of 1 mg/kg, 10 mg/kg, 25 mg/kg and 50 mg/kg. Clobazam was used as the reference anxiolytic; it was dispersed in a 0.2% hydroxypropylmethylcellulose solution and administered by intraperitoneal route at a dose of 32 mg/kg.

male CD1 albino mice [1] = test: Black-white box test in the mouse; settings: 50 mg/kg; for amount of time spent in the lighted compartment: 20 minutes after injection, vs controls
Procedure: The black-white box test measures the state of anxiety of animals as a function of their aversion to light. The apparatus consists of two compartments of the same size (length=21 cm, width=15 cm, height=25 cm), one painted white and illuminated by a 40 W bulb, the other painted black and closed with a cover. The animal can pass from one compartment to the other via to an opening 5 cm-square in the lower portion of the partition. After the injection, the animals were isolated for 20 minutes and then placed in the black compartment with their head facing the corner opposite the opening. Using a mirror placed above the apparatus, the time before first entering the lit compartment, the number of times entering and the time spent in the lighted compartment were measured. The two compartments were cleaned between each test.

male CD1 albino mice [2] = test: Raised cross-shaped labyrinth test in the mouse; settings: for anxiogenic effect in the raised cross-shaped labyrinth test / number of times the mice entered the open arm: 50 mg/kg; for number of times the mice entered the open arm: five minutes recording
Source text: The raised cross-shaped labyrinth test measures the animals' anxiety level based on its spontaneous aversion to voids (80). The apparatus is composed of four arms, placed at right angles, each measuring 18×6 cm; it rests on a pedestal 60 cm above the floor. Two of the arms have 6 cm-high side walls and are laid out end to end; these are the “closed” arms. […] After receiving their injections, the animals were isolated for twenty minutes and then placed in the labyrinth, at the center of the cross, with their head in the direction of a closed arm. Movements by the animals were recorded for five minutes by a video camera connected to image analysis software (Videotrack). The labyrinth was cleaned after each animal's test.

NMRI mice = test: Four-plate test in the mouse; settings: intraperitoneal, 25 mg/kg (P<0.05)
Procedure: Experiments were performed using NMRI mice weighing 20 g to 30 g according to the method described by Aron et al. (Neuropharmacology, 1971, 10:459-469). Animals were placed in a plastic chamber whose floor consisted of four metal plates independently connected to an electric shock generator (2.5 mA; 1.5 s). The animal is initially left free to explore the apparatus for 15 seconds, after which it receives an electric shock each time it crosses between two metal plates. An increase in the number of crossings indicates anxiolytic activity, whereas a reduction in this number indicates anxiogenic activity.
as §1, with “16” for “32”

male CD1 albino mice [3] = test: Locomotor activity (horizontal and vertical) in the mouse
Procedure: The animals were placed in groups of 20 in plexiglass cages (38×24×18 cm) and kept in a ventilated animal facility where the temperature was maintained at 21±1° C. The animals had free access to water and food; artificial lighting established a day/night cycle (daytime between 7:00 a.m. and 7:00 p.m.). Experiments were conducted between 11:00 a.m. and 6:00 p.m. […] The solutions were stabilized with Cremophor EL (Sigma) to a final concentration of 15%. The solutions were injected by intraperitoneal route in a dose of 10 ml/kg. Before each test, the animals were isolated for 20 minutes in plexiglass cages (27×13×13 cm); they had food at their disposal. […] Photoelectric sensors in the chambers measured the horizontal and vertical activity of the animals, expressed as the number of interrupted beams, and the data was analyzed using a software application (Omnitech Electronics Inc., Columbus, Ohio, USA). […] Animals were placed in the activity monitoring system immediately after receiving the injection. The chambers were cleaned after each animal's test.

male CD1 albino mice [4] = test: Hole-board test in the mouse; settings: 50 mg/kg; for number of edges explored / number of holes explored: 20 minutes after injection, vs solvent
Procedure: The hole-board test investigates curiosity and is negatively affected by anxiety. This apparatus, placed 60 cm above the floor, consists of a square platform of opaque plastic, 40 cm on each side, with 16 evenly distributed holes of such size that an animal is able to pass its head through. The animals were injected and then isolated for 20 minutes before being placed at the center of the platform. The number of holes and edges explored by each animal was counted. The apparatus was cleaned after each animal's test.

For `Cn1c(=O)[nH]c2ncn(C)c2c1=O` [paraxanthine, 1,7-dimethyl-3,7-dihydro-1H-purine-2,6-dione], the “anxiogenic effect in the Vogel conflict test” value (male Wistar rats) was “did not have an anxiogenic effect; also recorded: did not demonstrate an anxiogenic effect”, the “number of times animals consumed water” value (male Wistar rats) was “did not decrease” and the “anxiolytic effect in the black-white box test” value (male CD1 albino mice [1]) was “has an anxiolytic effect; also recorded: exhibited an anxiolytic effect”. The “amount of time spent in the lighted compartment” value (male CD1 albino mice [1]) was “increased the amount of time spent in the lighted compartment”, the “number of times entering the lighted compartment” value (male CD1 albino mice [1]; vs animals treated with caffeine (P<0.05)) was “went into the lighted compartment more often than animals treated with caffeine” and the “anxiogenic effect in the raised cross-shaped labyrinth test” value (male CD1 albino mice [2]) was “not the case”. For the same molecule, the “anxiolytic effect in the raised cross-shaped labyrinth test” value (male CD1 albino mice [2]; 50 mg/kg (high doses)) was “has an anxiolytic effect”, the “number of times the mice entered the open arm” value (male CD1 albino mice [2]) was “had no effect” and the “time spent by the animals in the open arm” value (male CD1 albino mice [2]; increasing doses from 1 mg/kg to 50 mg/kg (P<0.05 at 50 mg/kg)) was “increased until a significant effect was exhibited at a dose of 50 mg/kg”. For the same molecule, the “anxiolytic activity (number of crossings between two plates)” value (NMRI mice) was “has anxiolytic activity; also recorded: exhibited anxiolytic activity”, the “stimulating effect on locomotor activity” value (male CD1 albino mice [3]; doses from 1 mg/kg up to 50 mg/kg) was “dose-dependant stimulating effect” and the “duration of stimulation of horizontal locomotor activity” value (male CD1 albino mice [3]; intraperitoneal, 1 mg/kg) was 30 min. The horizontal locomotor activity (male CD1 albino mice [3]; intraperitoneal, 1 mg/kg, from the first 10-minute measurement period, vs solvent (P<0.05 or P<0.01)) was “stimulated horizontal locomotor activity”, the vertical locomotor activity (male CD1 albino mice [3]; intraperitoneal, comparable to horizontal activity, effect of 1 mg/kg more difficult to demonstrate) was “stimulated the animals' vertical locomotor activity” and the “duration of stimulation of horizontal locomotor activity” value (male CD1 albino mice [3]; intraperitoneal, doses higher than 1 mg/kg) was “at least one hour”. For the same molecule, the horizontal locomotor activity (male CD1 albino mice [3]; intraperitoneal, doses higher than 1 mg/kg (P<0.01 or P<0.001)) was “the effect was more marked”, the “anxiogenic effect in the hole-board test” value (male CD1 albino mice [4]) was “not the case; also recorded: did not” and the “number of edges explored” value (male CD1 albino mice [4]) was “did not have any effect”. For the same molecule, the “number of holes explored” value (male CD1 albino mice [4]) was “did not have any effect”.

For `Cn1c(=O)c2c(ncn2C)n(C)c1=O` [caffeine, 1,3,7-Trimethylxanthine], the “anxiolytic effect in the black-white box test” value (male CD1 albino mice [1]) was “does not; also recorded: did not have an anxiolytic effect”, the “amount of time spent in the lighted compartment” value (male CD1 albino mice [1]) was “did not change” and the “anxiogenic effect in the raised cross-shaped labyrinth test” value (male CD1 albino mice [2]) was “is anxiogenic; also recorded: has an anxiogenic effect”. For the same molecule, the “number of times the mice entered the open arm” value (male CD1 albino mice [2]) was “reduced the number of times the mice entered the open arm”, the “duration of stimulation of horizontal locomotor activity” value (male CD1 albino mice [3]; intraperitoneal, 10 mg/kg) was “at least one hour” and the vertical locomotor activity (male CD1 albino mice [3]; intraperitoneal, 10 mg/kg, significant only 30 minutes after the injection (P<0.05)) was “stimulated the animals' vertical locomotor activity”. The horizontal locomotor activity (male CD1 albino mice [3]; intraperitoneal, 10 mg/kg, within the first 10 minutes (P<0.05)) was “stimulated animals' horizontal locomotor activity”, the “duration of stimulation of horizontal locomotor activity” value (male CD1 albino mice [3]; intraperitoneal, 25 mg/kg) was 40 min and the horizontal locomotor activity (male CD1 albino mice [3]; intraperitoneal, 25 mg/kg, 10 minutes after the injection (P<0.05)) was “stimulated this activity”. For the same molecule, the “duration of decrease of vertical activity” value (male CD1 albino mice [3]; intraperitoneal, 100 mg/kg) was 40 min, the vertical locomotor activity (male CD1 albino mice [3]; intraperitoneal, 100 mg/kg, from the first measurement period (P<0.05)) was “vertical activity decreased relative to that of the controls” and the “horizontal activity for one hour (cumulative)” value (male CD1 albino mice [3]; intraperitoneal, 60 minutes) was “stimulated by caffeine only at doses of 10 mg/kg (P<0.01) and 25 mg/kg (P<0.05)”. The horizontal locomotor activity (male CD1 albino mice [3]; intraperitoneal, doses lower than 10 mg/kg or higher than 25 mg/kg, vs solvent alone) was “no significant difference”, the “range of doses with stimulating effect on locomotor activity” value (male CD1 albino mice [3]; same conditions) was 10 to 25 mg/kg and the “stimulating effect on locomotor activity compared with paraxanthine” value (male CD1 albino mice [3]; same conditions) was “the effect is less”. The “anxiogenic effect in the hole-board test” value (male CD1 albino mice [4]) was “has an anxiogenic effect; also recorded: had an anxiogenic effect”, the “number of edges explored” value (male CD1 albino mice [4]) was “significantly decreased” and the “number of holes explored” value (male CD1 albino mice [4]) was “significantly decreased”.
